Here are results for 25 molecules from patent US20250171447A1, “ADENOSINE RECEPTOR ANTAGONISTS, PHARMACEUTICAL COMPOSITIONS AND THEIR USE THEREOF” (Merck Sharp & Dohme LLC, priority 2022, published 2025).

Test [1] deals with human A2A adenosine receptor (Homo sapiens (Human), UniProt P29274). As to the kind of experiment: A2A receptor affinity binding assay (radioligand filtration binding or SPA, [3H]SCH58261). Conditions: membranes from HEK293 or CHO cells expressing human A2A; Method (A) filtration or Method (B) SPA.
The target of test [2] is human A2B adenosine receptor (Homo sapiens (Human), UniProt P29275). The test can be described thus: A2B binding affinity radioligand filtration binding assay. Conditions: membranes from HEK293 cells expressing human A2B; tritiated proprietary A2B antagonist.

By IC50 is commonly meant the concentration that inhibits the measured activity by half.

Sequence of human A2A adenosine receptor (P29274 whole entry): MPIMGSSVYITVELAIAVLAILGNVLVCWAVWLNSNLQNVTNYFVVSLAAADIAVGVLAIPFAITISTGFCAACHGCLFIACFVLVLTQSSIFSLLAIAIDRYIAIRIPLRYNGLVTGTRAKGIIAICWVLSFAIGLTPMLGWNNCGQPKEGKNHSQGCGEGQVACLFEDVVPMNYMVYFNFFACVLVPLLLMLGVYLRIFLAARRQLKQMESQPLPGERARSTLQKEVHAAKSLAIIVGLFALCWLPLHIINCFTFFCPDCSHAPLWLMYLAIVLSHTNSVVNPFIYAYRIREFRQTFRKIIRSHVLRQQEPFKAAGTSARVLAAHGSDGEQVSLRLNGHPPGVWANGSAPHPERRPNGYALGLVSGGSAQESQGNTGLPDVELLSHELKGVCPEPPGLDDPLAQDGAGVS
Sequence of human A2B adenosine receptor (P29275 whole entry): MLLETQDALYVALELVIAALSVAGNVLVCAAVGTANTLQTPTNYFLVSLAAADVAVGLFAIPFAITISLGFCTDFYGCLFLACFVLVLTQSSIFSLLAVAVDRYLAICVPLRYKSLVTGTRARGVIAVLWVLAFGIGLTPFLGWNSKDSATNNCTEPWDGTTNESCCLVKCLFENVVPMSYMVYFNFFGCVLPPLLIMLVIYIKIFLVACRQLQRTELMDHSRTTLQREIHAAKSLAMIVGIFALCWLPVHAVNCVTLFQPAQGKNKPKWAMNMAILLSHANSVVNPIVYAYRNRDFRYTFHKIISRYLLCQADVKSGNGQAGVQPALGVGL

For the molecule `COc1cccc2c1nc(N)n1nc([C@@H]3C[C@H]3c3ccc(C(C)(C)O)cc3)nc21` [Ex-1, 2-(4-((1r,2r)-2-(5-amino-7-methoxy-[1,2,4]triazolo[1,5-c]quinazolin-2-yl)cyclopropyl)phenyl)propan-2-ol], the IC50 in test [1] was found to be 17.4 nM; in test [2], 26.3 nM.
As to `COc1cccc2c1nc(N)n1nc([C@@H]3C[C@H]3c3cnn(C)c3)nc21` [Ex-2, 7-methoxy-2-((1r,2r)-2-(1-methyl-1H-pyrazol-4-yl)cyclopropyl)-[1,2,4]triazolo[1,5-c]quinazolin-5-amine], the half-maximal inhibitory concentration (IC50) turned out to be 2.6 nM in test [1] and 50.4 nM in test [2].
In turn, `COc1cccc2c1nc(N)n1nc(C3CC3c3nc4ccccc4n3C)nc21` (stereo not shown) [Ex-3, 7-methoxy-2-[2-(1-methyl-1H-benzimidazol-2-yl)cyclopropyl][1,2,4] triazolo[1,5-c] quinazolin-5-amine] registered an IC50 in test [2] of 2.9 nM.
Turning to `CNC(=O)c1cccc(C2CC2c2nc3c4cccc(OC)c4nc(N)n3n2)c1` (stereo not shown) [Ex-4, 3-[2-(5-amino-7-methoxy[1,2,4]triazolo [1,5-c]quinazolin-2-yl)cyclopropyl]-N-methylbenzamide], the IC50 in test [1] was 0.4 nM; in test [2] it was 25 nM.
The matching figures for `COc1cccc2c1nc(N)n1nc(C3CC3c3cccc(NC(C)=O)c3)nc21` (stereo not shown) [Ex-5, N-{3-[2-(5-amino-7-methoxy[1,2,4]triazolo [1,5-c]quinazolin-2-yl)cyclopropyl]phenyl} acetamide]: 0.5 nM and 15.4 nM.
In the case of `COc1cccc2c1nc(N)n1nc(C3CC3c3ccc4c(c3)C(=O)NC4)nc21` (stereo not shown) [Ex-6, 6-[2-(5-amino-7-methoxy[1,2,4]triazolo [1,5-c]quinazolin-2-yl)cyclopropyl]-2,3-dihydro-1H-isoindol-1-one], the IC50 stood at 0.9 nM in test [1] and 13.2 nM in test [2].
As to `COc1cccc2c1nc(N)n1nc(C3CC3c3cn4ccnc4cc3C)nc21` (stereo not shown) [Ex-7], the figures for the half-inhibitory concentration (IC50) in test [1] and in test [2] were 1.3 nM and 66.1 nM, respectively.
For `COc1cccc2c1nc(N)n1nc(C3CC3c3ccc4c(c3)CNC4=O)nc21` (stereo not shown) [Ex-8, 5-[2-(5-amino-7-methoxy[1,2,4]triazolo [1,5-c]quinazolin-2-yl)cyclopropyl]-2,3-dihydro-1H-isoindol-1-one] the same measures were 1.5 nM and 31 nM.
For `COc1cccc2c1nc(N)n1nc(C3CC3c3ccc4nnc(C)n4c3)nc21` (stereo not shown) [Ex-9, 7-methoxy-2-[2-(3-methyl[1,2,4]triazolo [4,3-a]pyridin-6-yl)cyclopropyl][1,2,4] triazolo[1,5-c] quinazolin-5-amine] the same measures were 2 nM and 337 nM.
For `COc1cccc2c1nc(N)n1nc(C3CC3C)nc21` (stereo not shown) [Ex-10, 7-methoxy-2-[2-methylcyclopropyl] [1,2,4]triazolo[1,5-c] quinazolin-5-amine] the same measures were 2.6 nM and 45.4 nM.
With `COc1cccc2c1nc(N)n1nc(C3CC3c3ccc(C)nc3)nc21` (stereo not shown) [Ex-11, 7-methoxy-2-[2-(6-methylpyridin-3-yl)cyclopropyl][1,2,4] triazolo[1,5-c] quinazolin-5-amine], the IC50 in test [1] stood at 3.1 nM; in test [2] it was 78.4 nM.
The matching figures for `COc1cccc2c1nc(N)n1nc(C3CC3c3ccccc3[C@@H](C)O)nc21` (stereo partly drawn) [Ex-12, (1R)-1-{2-[2-(5-amino-7-methoxy[1,2,4]triazolo [1,5-c]quinazolin-2-yl)cyclopropyl]phenyl} ethan-1-ol]: 3.2 nM and 281 nM.
Take `COc1cccc2c1nc(N)n1nc(C3CC3c3ccc4nncn4c3)nc21` (stereo not shown) [Ex-13, 7-methoxy-2-[2-([1,2,4]triazolo[4,3-a]pyridin-6-yl)cyclopropyl][1,2,4] triazolo[1,5-c] quinazolin-5-amine]: the IC50 in test [1] worked out at 3.3 nM; in test [2], 152 nM.
With `CCn1cc(C2CC2c2nc3c4cccc(OC)c4nc(N)n3n2)cn1` (stereo not shown) [Ex-14, 2-[2-(1-ethyl-1H-pyrazol-4-yl)cyclopropyl]-7-methoxy[1,2,4]triazolo [1,5-c]quinazolin-5-amine], the IC50 in test [1] was 3.3 nM; in test [2], 56.1 nM.
On to `COc1cccc2c1nc(N)n1nc(C3CC3c3ccccc3[C@H](C)O)nc21` (stereo partly drawn) [Ex-15, (1S)-1-{2-[2-(5-amino-7-methoxy[1,2,4]triazolo [1,5-c]quinazolin-2-yl)cyclopropyl]phenyl} ethan-1-ol], for which the IC50 in test [1] turned out to be 3.4 nM; in test [2], 1840 nM.
For `COc1cccc2c1nc(N)n1nc(C3CC3c3cncc(C(C)(C)O)c3)nc21` (stereo not shown) [Ex-16, 2-{5-[2-(5-amino-7-methoxy[1,2,4]triazolo [1,5-c]quinazolin-2-yl)cyclopropyl]pyridin-3-yl} propan-2-ol] the same measures were 4 nM and 15.5 nM.
As to `COc1cccc2c1nc(N)n1nc(C3CC3c3ccc(C(N)=O)c(F)c3)nc21` (stereo not shown) [Ex-17, 4-[2-(5-amino-7-methoxy[1,2,4]triazolo [1,5-c]quinazolin-2-yl)cyclopropyl]-2-fluorobenzamide], the figures for the half-inhibitory concentration (IC50) in test [1] and in test [2] were 4.1 nM and 40.7 nM, respectively.
For `COc1cccc2c1nc(N)n1nc(C3CC3c3cncc(F)c3)nc21` (stereo not shown) [Ex-18, 2-[2-(5-fluoropyridin-3-yl)cyclopropyl]-7-methoxy[1,2,4]triazolo [1,5-c]quinazolin-5-amine] the same measures were 5.5 nM and 252 nM.
The matching figures for `CNC(=O)c1ccc(C2CC2c2nc3c4cccc(OC)c4nc(N)n3n2)cc1` (stereo not shown) [Ex-19, 4-[2-(5-amino-7-methoxy[1,2,4]triazolo [1,5-c]quinazolin-2-yl)cyclopropyl]-N-methylbenzamide]: 5.8 nM and 32.9 nM.
In the case of `COc1cccc2c1nc(N)n1nc(C3CC3c3cccc4c3CNC4=O)nc21` (stereo not shown) [Ex-20, 4-[2-(5-amino-7-methoxy[1,2,4]triazolo [1,5-c]quinazolin-2-yl)cyclopropyl]-2,3-dihydro-1H-isoindol-1-one], the concentration for half-maximal inhibition (IC50) stood at 6.5 nM in test [1] and 395 nM in test [2].
Take `COc1cccc2c1nc(N)n1nc(C3CC3c3ccc4cnn(C)c4c3)nc21` (stereo not shown) [Ex-21, 7-methoxy-2-[2-(1-methyl-1H-indazol-6-yl)cyclopropyl][1,2,4] triazolo[1,5-c] quinazolin-5-amine]: the IC50 is 6.9 nM in test [1] and 104 nM in test [2].
For `COc1cccc2c1nc(N)n1nc(C3CC3c3cnc(NCCO)nc3)nc21` (stereo not shown) [Ex-22, 2-({5-[2-(5-amino-7-methoxy[1,2,4]triazolo [1,5-c]quinazolin-2-yl)cyclopropyl]pyrimidin-2-yl}amino)ethan-1-ol], the values for the IC50 in test [1] and in test [2] were 7.7 nM and 133 nM, respectively.
In test [2], `COc1cccc2c1nc(N)n1nc([C@H]3C[C@H](c4ncc(C(C)(C)N)cc4C)C3)nc21` [Ex-83, 2-((1r,3r)-3-(5-(2-aminopropan-2-yl)-3-methylpyridin-2-yl)cyclobutyl)-7-methoxy-[1,2,4]triazolo[1,5-c]quinazolin-5-amine] showed a half-maximal inhibitory concentration (IC50) of 1.6 nM.
In test [1], `COc1cccc2c1nc(N)n1nc([C@H]3C[C@@H](c4ccc(C5(N)CC(F)(F)C5)cn4)C3)nc21` [Ex-140, 2-((1s,3s)-3-(5-(1-amino-3,3-difluorocyclobutyl)pyridin-2-yl)cyclobutyl)-7-methoxy-[1,2,4]triazolo[1,5-c]quinazolin-5-amine] had a half-inhibitory concentration (IC50) of 5.4 nM.
Still for that read-out and setting: to `COc1cccc2c1nc(N)n1nc([C@H]3C[C@H](c4ccc(C5(N)CC(F)(F)C5)cn4)C3)nc21` [Ex-141] belongs 3.1 nM.
